Data published in PubChem BioAssay (NCI).
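Cells were grown in 96-well plates and exposed to each compound for 48 hours at five concentrations; endpoints were interpolated linearly between bracketing concentrations, or set to the highest concentration if not reached. GI50 is the concentration that inhibits growth by half. Definition used: TGI = concentration required for complete inhibition of growth.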

What was measured:
Test in all cases: NCI-60 cell line screen, 48 h
NCI-H23 lung = test system: NCI-H23 lung
NCI-H460 lung = test system: NCI-H460 lung
NCI-H522 lung = test system: NCI-H522 lung
NCI/ADR-RES ovarian = test system: NCI/ADR-RES ovarian
OVCAR-4 ovarian = test system: OVCAR-4 ovarian
OVCAR-5 ovarian = test system: OVCAR-5 ovarian
OVCAR-8 ovarian = test system: OVCAR-8 ovarian
PC-3 prostate = test system: PC-3 prostate
RPMI-8226 leukemia = test system: RPMI-8226 leukemia
RXF 393 renal = test system: RXF 393 renal
SF-268 CNS = test system: SF-268 CNS
SF-295 CNS = test system: SF-295 CNS
SF-539 CNS = test system: SF-539 CNS
SK-MEL-2 melanoma = test system: SK-MEL-2 melanoma
SK-MEL-28 melanoma = test system: SK-MEL-28 melanoma
SK-MEL-5 melanoma = test system: SK-MEL-5 melanoma
SK-OV-3 ovarian = test system: SK-OV-3 ovarian
SN12C renal = test system: SN12C renal
SNB-19 CNS = test system: SNB-19 CNS
SNB-75 CNS = test system: SNB-75 CNS
SR leukemia = test system: SR leukemia
SW-620 colon = test system: SW-620 colon
TK-10 renal = test system: TK-10 renal
U251 CNS = test system: U251 CNS
UACC-257 melanoma = test system: UACC-257 melanoma
UACC-62 melanoma = test system: UACC-62 melanoma
UO-31 renal = test system: UO-31 renal

## CCc1ccc(SC2c3ccc(N(CC)CC)cc3Oc3nc(N)c(C#N)c(N)c32)cc1 (centres undefined)
NCI-H23 lung
  GI50: 1.53 µM
  TGI: 3.03 µM
NCI-H460 lung
  GI50: 1.84 µM
  TGI: 3.55 µM
NCI-H522 lung
  GI50: 1.78 µM
  TGI: 3.28 µM
NCI/ADR-RES ovarian
  GI50: 2.09 µM
  TGI: 4.96 µM
OVCAR-4 ovarian
  GI50: 1.7 µM
  TGI: 3.09 µM
OVCAR-5 ovarian
  GI50: 1.8 µM
  TGI: 3.24 µM
OVCAR-8 ovarian
  GI50: 1.71 µM
  TGI: 3.13 µM
PC-3 prostate
  GI50: 1.41 µM
  TGI: 2.9 µM
RPMI-8226 leukemia
  GI50: 2.18 µM
  TGI: 6.08 µM
RXF 393 renal
  GI50: 1.58 µM
  TGI: 2.96 µM
SF-268 CNS
  GI50: 1.76 µM
  TGI: 3.27 µM
SF-295 CNS
  GI50: 1.76 µM
  TGI: 3.2 µM
SF-539 CNS
  GI50: 1.66 µM
  TGI: 3.05 µM
SK-MEL-2 melanoma
  GI50: 1.74 µM
  TGI: 3.17 µM
SK-MEL-28 melanoma
  GI50: 1.89 µM
  TGI: 3.31 µM
SK-MEL-5 melanoma
  GI50: 1.77 µM
  TGI: 3.17 µM
SK-OV-3 ovarian
  GI50: 1.89 µM
  TGI: 3.34 µM
SN12C renal
  GI50: 1.68 µM
  TGI: 3.13 µM
SNB-19 CNS
  GI50: 1.69 µM
  TGI: 3.08 µM
SNB-75 CNS
  GI50: 1.5 µM
  TGI: 2.83 µM
SR leukemia
  GI50: 0.482 µM
  TGI: > 100 µM
SW-620 colon
  GI50: 1.88 µM
  TGI: 3.51 µM
TK-10 renal
  GI50: 2.75 µM
  TGI: 4.26 µM
U251 CNS
  GI50: 1.44 µM
  TGI: 2.82 µM
UACC-257 melanoma
  GI50: 1.84 µM
  TGI: 3.28 µM
UACC-62 melanoma
  GI50: 1.7 µM
  TGI: 3.13 µM
UO-31 renal
  GI50: 1.45 µM
  TGI: 2.76 µM
